Reference: patent publication US20160101076A1, “Use of Sumoylation Inhibitors for Treating Cancer” (priority 2013, published 2016)

Key:
[1] = system: sKD-C cells; test: Gene/protein expression and CD44+/CD24-/low FACS in sKD-C cells treated with sumoylation inhibitors; format: cell-based, human; settings: for CD44+/CD24-/low population by FACS analysis / CD44 expression by Western blot: s-KD-C cells, FIG. 6A; for ability to repress CD44 expression with knockdown of TFAP2A: TFAP2A siRNA, Western blot FIG. 6B
Experimental: (§1) The human breast cancer cell lines (MCF-7, SKBR-3, BT-20, BT-549, MCF-10A) were obtained from American Type Culture Collection. sKD-C cells were subcloned from parental MCF-7 cells with stable knockdown of TFAP2C as described (Cyr et al., 2014). ER<-positive tumors and the basal cancer tumor were obtained from surgical resection specimens. Cell suspensions were prepared with gentle collagenase/hyaluronidase (Stemcells) (Ponti et al., 2005). A new cell line was established from the basal tumor cells, called IOWA-1T (manuscript in preparation).
Total RNA was isolated and analyzed as previously described. Expression values were normalized to the mean of 18S rRNA 4319413E-0803037 (Applied Biosystems) as endogenous control.
(§2) Western blots were performed as previously described (Cyr et al., 2014; Kulak et al., 2013). For immunoprecipitations anti-TFAP2A, anti-GFP antibody (Life Technologies) or IgG (#sc-2025, Santa Cruz Biotechnology) were cross-linked with Dynabeads protein A (Life Technologies). MCF7 protein was incubated with Dynabeads protein A-Abs complex, protein complexes were washed with DPBS (Gibco) with 0.01% Tween (Research Products International Corp.), and eluted with SDS loading buffer.
(§3) Cells were plated ([…]/10 cm2) and treated with 10 μM gingolic or anacardic acid (Sigma) for 2-4 days and collected for qPCR, Western blot and FACS analysis.
(§4) FACS analysis was performed as previously described (Roederer and Hardy, 2001).

[2] = system: BT-20 cells; test: CD44 Western blot and CD44+/CD24-/low FACS in BT-20 cells; format: cell-based, human; settings: for ability to repress CD44 expression with knockdown of TFAP2A: BT20 cells, TFAP2A siRNA, Western blot FIG. 6C; for CD44+/CD24-/low population by FACS analysis / CD44 expression by Western blot: BT-20 cells, FIG. 6A, 10 μM, 2-4 days
Experimental: as §1, §2, §3, §4

[3] = system: cells derived from a primary basal cancer; test: CD44 Western blot and CD44+/CD24-/low FACS in cells from a primary basal breast cancer; format: cell-based, human; settings: for CD44 expression by Western blot: cells derived from a primary basal cancer, FIG. 6A; for CD44+/hi/CD24-/low CSC population: cells harvested from primary basal breast tumor refractory to chemotherapy, treated in vitro, FACS FIG. 6A
Experimental: In addition, cells from a primary basal breast cancer were treated in vitro in parallel. The cancer was from a patient with locally advanced breast cancer that was refractory to conventional chemotherapy. Remarkably, treatment with GA or AA cleared the CD44^+/hi/CD24^−/low CSC population from the cells harvested from the primary tumor (FIG. 6A, last panel). By contrast, GA/AA treatment of MCF-10A cells, a normal breast cell line model, had no effect on CD44 expression and had no effect on the percentage of cells expressing stem cell markers.
as §1, §2, §3, §4

[4] = system: BT20 xenografts; test: BT20 xenografts from cells pretreated before inoculation; format: in vivo; settings: BT20 cells pretreated for 48 hours prior to inoculation in nude mice; FIG. 8A
Text: FIGS. 8A-8D. SUMO Inhibitors Repressed Outgrowth of Xenografts. FIG. 8A. […] FIG. 8B. Tumor-free survival of nude mice (n=5 per group) inoculated with BT20 cells with animals gavaged with AA vs. vehicle. FIG. 8C. IOWA-1T cells were pre-treated with anacardic acid (AA) or vehicle and mice were followed until requiring euthanasia due to tumor size (Overall Survival). […] FIG. 8D. Nude mice were inoculated with 1×10^6, 5×10^5, or 2.5×10^5 IOWA-1T cells and animals were gavaged with either vehicle or AA; vehicle-gavaged mice developed tumors in 5, 10 and 12 days, respectively.
To address the effects of GA and AA on tumor initiation, BT20 cells were pretreated with GA or AA compared to vehicle prior to inoculation of xenografts in nude mice. As noted in FIG. 8A, pretreatment of the cells repressed the formation of tumor xenografts, whereas, vehicle treated cells formed xenografts with a median time of 8 weeks. […] We created a breast carcinoma cell line (IOWA-1T) from the basal tumor-derived cells used in FIG. 6A. The IOWA-1T cell line rapidly forms locally advanced tumors in nude mice. Identical experiments using the IOWA-1T basal cell line confirmed that either pre-treating the cancer cells or gavaging animals with AA repressed tumor initiation of xenografts (FIGS. 8C and 8D). […]

[5] = sKD-C cells, compared to vehicle treatment, mRNA and protein (FIG. 5E), 10 μM, 2-4 days

SMILES	CD44+/CD24-/low population by FACS analysis ([1]; 10 μM, 2-4 days)	CD44 expression by Western blot ([1]; 10 μM, 2-4 days)	ability to repress CD44 expression with knockdown of TFAP2A ([1]; sKD-C cells)	TFAP2C expression ([1]; sKD-C cells, compared to vehicle treatment, FIG. 5E)	FREM2 expression ([1]; sKD-C cells, compared to vehicle treatment, FIG. 5E, 10 μM, 2-4 days)	CD44 expression [1, 5]	ERα expression [1, 5]	ability to repress CD44 expression with knockdown of TFAP2A [2]	CD44+/CD24-/low population by FACS analysis [2]	CD44 expression by Western blot [2]	CD44 expression by Western blot [3]	CD44+/hi/CD24-/low CSC population [3]	formation of tumor xenografts (tumor free survival) [4]
CCCCCC/C=C\CCCCCCCc1cccc(O)c1C(=O)O [GA, (Z)-6-(Pentadec-8-enyl)-2-hydroxybenzoic acid]	significantly reduced	inhibited	completely eliminated	without altering	induced	repressed	induced	completely eliminated	significantly reduced	inhibited	inhibited	cleared	repressed
CCCCCCCCCCCCCCCc1cccc(O)c1C(=O)O [AA, Anacardic acid (C15:0)]	significantly reduced	inhibited	completely eliminated					completely eliminated	significantly reduced	inhibited	inhibited	cleared	repressed
